# In US5422341A, “Motilin-like polypeptides with gastrointestinal motor stimulating activity” (Ohmeda Pharmaceutical Products Division Inc., priority 1993, dated 1995):
# Read-outs that look alike come from different tables or passages of the source. Square brackets hold non-standard residues; d marks the D form. Ends that are not written are not given here. Peptide text beside a SMILES is read from it. * marks the point of attachment. X1 = C[N+](C)(C)[C@@H](Cc1ccccc1)C(=O)*; NMe2Phe = CN(C)[C@@H](Cc1ccccc1)C(=O)*; NMeF = CN[C@@H](Cc1ccccc1)C(=O)O
# Experiments:
# motilin receptor = target: T1, motilin receptor (Oryctolagus cuniculus, UniProt G1T803); assay: Determination of motilin receptor binding affinity (displacement of [125I-Tyr7, Nle13]motilin(porcine)); design: species or system rabbit
# T1 construct: from tissue; host or cells: rabbit antral smooth muscle membranes
# Procedure: The motilin receptor binding affinity of the peptides of this invention was determined by using the general procedure of Bormans, Peelers and Vantrappen, Regul. […] Fitting was performed using the iterative least-squares procedure of the SAS-software package (SAS Institute, Inc., Cary, N.C., USA).
# [1] = target: segments of rabbit duodenum (Oryctolagus cuniculus, UniProt G1T803); assay: Rabbit duodenal smooth muscle strip tissue bath assay; format: cell-based; settings: negative logarithm of the dose giving 50% of the maximal response to motilin; isotonic contraction of rabbit duodenum segments
# Method in brief: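 Isotonic contraction of rabbit duodenal segments after 1 h equilibration and 10^-4 M acetylcholine challenge; cumulative compound curve over 10^-11 to 10^-4 M, then 10^-7 M motilin. Runs discarded if final acetylcholine response differed >5%. EC50 at 50% of maximal motilin response, reported as pEC50.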
# [2] = format: in vitro ADME, hog; settings: pH 7
# Procedure: Like most small linear polypeptides, motilin is believed to be metabolized lo by the brush border cells of the kidney. Therefore, kidney homogenate was chosen as the model system for assessing the relative in vivo biostability of the peptides of this invention. All peptides to be studied were incubated in hog kidney (Pel Freeze, Inc., Rogers, Ark.) (2% w/v; final volume=4 ml; buffer=HEPES pH 7.0) at 25° C. Both initial substrate concentration and internal standard (Fmoc-Gly) concentration were 0.5 mg/ml. In order to determine suitable incubation times and sampling intervals, two experiments were conducted with each polypeptide. The first run served as a rough estimate of peptide stability. All sampling was performed in duplicate. Sample volume was 180 μl.
# Sample clean-up was performed by addition of 20 μl of 100% TCA (final volume=200 μl; final TCA concentration=10%). The sample was vortexed for from 5 to 10 seconds to ensure equilibration, then centrifuged to spin out the precipitated proteins. Analysis was carried out on a Waters HPLC system with a WISP autoinjector, a 5μ Vydac C-18 analytical column, and a Waters 481 UV detector set at 214 nm. Injection volume was 80 μl. Initial solvent conditions were […] in Milli-Q water with a 35 minute gradient running to 63% acetonitrile/37% (0.1%) TFA at 1 ml/min.
# Polypeptide substrate and metabolite peaks were ratioed to the internal standard and the duplicate sample ratios were averaged. The avenge ratio for the peptide substrate was expressed as a percentage and plotted versus time. First-order kinetics was assumed for data treatment. The rate of disappearance of the substrate was calculated using the Enzfitter program (Biosoft). Relative half-lives were determined from the relationship: […]
# [3] = test system: canine gastrointestinal tract; assay: Contractile activity in the canine gastrointestinal tract; format: in vivo, dog; settings: anesthetized dogs, intra-arterial injection to a duodenal segment; amount giving 50% of the calibration response to field stimulation
# Procedure: Mongrel dogs of either sex were anesthetized with sodium pentobarbital 65 mg/kg intravenously. A mid-line incision was made in the abdomen. A duodenal segment was located, the terminal arteries to that segment were identified, and the closest possible artery of the appropriate size was rubbed clean of fat and fascia. A needle of suitable diameter was bent at an angle and the tip inserted in the cleaned artery. The needle was held in position in the artery for approximately 30 seconds until vascular spasm has relaxed and then a catheter assembly was inserted into the artery and tied into position with 000 silk sutures. The fine polyethylene catheter (10-15 cm) was cut to a point at one end with a needle inserted at the other end. The hub of the needle was fitted with a 3-way stopcock and the catheter assembly was filled with heparinized Krebs Ringer bicarbonate containing 10 mM glucose. A bolus of Krebs (free of air) was injected into the arterial catheter and the distribution of blanching in the segment noted. If the area was too large, collateral arteries may be tied off as long as circulation to the area was maintained. A Bass type strain gauge was then sutured to the serosa, and oriented so that circular muscle contractions can be recorded on a Beckman R611 dynograph. Silver wire electrodes were inserted subserosally on either side of the strain gauge and were connected through stimulus isolation units to a Grass S88 electrical stimulator. Electrical field stimulation was applied at 40 V 0.5 ms and 5 pps and the amplitude of the pen recorder was set to contain the contractile response.
# All peptides to be injected were dissolved in Krebs and serial dilutions were prepared so that for any concentration the maximum volume to be injected was 1 ml. All solutions except stock Krebs were held on ice for the day of the experiment and discarded at the end of the day. For determination of a dose-response curve, the site was first injected with a bolus of approximately 1 ml of heparinized Krebs to provide a flush control. Peptide agonists (in volumes of 1 ml flushed with 1 ml of Krebs) were injected in logarithmic increments until a response which was maximal in amplitude was obtained. The injection site was then flushed with Krebs containing 0.1% BSA to displace any peptide remaining in the arterial line. For peptides acting at the motilin receptor, care was taken not to inject supramaximal doses as these will induce tachyphylaxis. Therefore, as responses become apparent, 0.3 or 0.5 log unit increments were used. A site was used for a dose-response determination only every 1/2 to 1 hour.
# The amplitude of the calibration response to field stimulation in each site was measured and used as 100% for that site. The amplitude of the response to the agonist at each dose was determined, calculated as a % of the calibration response and plotted against the concentration. The ED50 of the response represents the amount of agonist required to produce a response which was 50% of the calibration response.
# [4] = in vivo; cited from earlier work
# [5] = negative logarithm of the concentration displacing 50% of [125I-Tyr7, Nle13]motilin(porcine) from rabbit antral smooth muscle membranes, read-out: pIC50 (converted)
# segments of rabbit duodenum, sequence (G1T803 1-400): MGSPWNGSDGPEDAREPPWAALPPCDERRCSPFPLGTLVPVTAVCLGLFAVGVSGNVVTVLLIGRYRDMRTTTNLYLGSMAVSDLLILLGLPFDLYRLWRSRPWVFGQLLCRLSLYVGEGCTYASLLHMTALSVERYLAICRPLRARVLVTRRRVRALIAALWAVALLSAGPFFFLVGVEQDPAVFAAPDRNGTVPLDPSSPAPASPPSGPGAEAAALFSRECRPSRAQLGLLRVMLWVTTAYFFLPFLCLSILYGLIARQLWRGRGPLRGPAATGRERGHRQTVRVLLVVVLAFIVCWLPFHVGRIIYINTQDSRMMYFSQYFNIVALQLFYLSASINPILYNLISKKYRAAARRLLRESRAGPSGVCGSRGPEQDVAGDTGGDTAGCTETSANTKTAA
# T1 sequence (G1T803 1-400): as above
Compound,IC50 (motilin receptor; [5]) [nM],pEC50 [1],T1/2 [2],ED50 [3] [nmol],Kd (motilin receptor) [nM],half-life (t1/2) [4] [min],"IC50 (motilin receptor; pIC50, negative logarithm of the concentration displacing 50% of [125I-Tyr7, Nle13]motilin(porcine) from rabbit antral smooth muscle membranes) [nM]"
CC[C@H](C)[C@H](NC(=O)[C@@H]1CCCN1C(=O)[C@@H](NC(=O)[C@H](Cc1ccccc1)NC)C(C)C)C(=O)N[C@@H](Cc1ccccc1)C(=O)N[C@H](C(=O)N[C@@H](Cc1ccc(O)cc1)C(=O)NCC(=O)N[C@@H](CCC(=O)O)C(=O)N[C@@H](CC(C)C)C(=O)N[C@@H](CCC(N)=O)C(=O)N[C@@H](CCCNC(=N)N)C(=O)N[C@@H](CC(C)C)C(=O)N[C@@H](CCCCN)C(N)=O)[C@@H](C)O (H-[NMeF]VPIFTYGELQRLK-NH2),0.479,7.74,20,0.025,,,
"CC[C@H](C)[C@H](NC(=O)[C@@H]1CCCN1C(=O)[C@@H](NC(=O)[C@H](Cc1ccccc1)NC)C(C)C)C(=O)N[C@@H](Cc1ccccc1)C(=O)N[C@H](C(=O)N[C@@H](Cc1ccc(O)cc1)C(=O)NCC(=O)N[C@@H](CCC(=O)O)C(=O)N[C@@H](CC(C)C)C(=O)N[C@@H](CCC(N)=O)C(=O)N[C@H](CCCNC(=N)N)C(=O)N[C@@H](CC(C)C)C(=O)N[C@@H](CCC(N)=O)C(=O)O)[C@@H](C)O [[N-MePhe^1, D-Arg^12, Leu^13]pMOT(1-14)] (H-[NMeF]VPIFTYGELQ[dR]LQ-OH)",1.91,7.71,30,0.40,,,
CC[C@H](C)[C@H](NC(=O)[C@@H]1CCCN1C(=O)[C@@H](NC(=O)[C@H](Cc1ccccc1)NC)C(C)C)C(=O)N[C@@H](Cc1ccccc1)C(=O)N[C@H](C(=O)N[C@@H](Cc1ccc(O)cc1)C(=O)NCC(=O)N[C@@H](CCC(=O)O)C(=O)N[C@@H](CC(C)C)C(=O)N[C@@H](C)C(=O)N[C@H](CCCNC(=N)N)C(=O)N[C@@H](CC(C)C)C(=O)N[C@H](CCC(N)=O)C(N)=O)[C@@H](C)O (H-[NMeF]VPIFTYGELA[dR]L[dQ]-NH2),0.851,7.97,32.6,0.40,,,
CC[C@H](C)[C@H](NC(=O)[C@@H]1CCCN1C(=O)[C@@H](NC(=O)[C@@H](N)Cc1ccccc1)C(C)C)C(=O)N[C@@H](Cc1ccccc1)C(=O)N[C@H](C(=O)N[C@@H](Cc1ccc(O)cc1)C(=O)NCC(=O)N[C@@H](CCC(=O)O)C(=O)N[C@@H](CC(C)C)C(=O)N[C@@H](CCC(N)=O)C(=O)N[C@@H](CCCNC(=N)N)C(=O)N[C@@H](CCSC)C(=O)N[C@@H](CCC(N)=O)C(=O)N[C@@H](CCC(=O)O)C(=O)N[C@@H](CCCCN)C(=O)N[C@@H](CCC(=O)O)C(=O)N[C@@H](CCCNC(=N)N)C(=O)N[C@@H](CC(N)=O)C(=O)N[C@@H](CCCCN)C(=O)NCC(=O)N[C@@H](CCC(N)=O)C(=O)O)[C@@H](C)O [motilin],,,,,0.759,4.5,
"FVPIFTYGELQRLQ [[Leu^13]pMOT(1-14), reference compound]",4.37,7.55,7.5,20.4,,,
"CC[C@H](C)[C@H](NC(=O)[C@@H]1CCCN1C(=O)[C@@H](NC(=O)[C@@H](N)Cc1ccccc1)C(C)C)C(=O)N[C@@H](Cc1ccccc1)C(=O)N[C@H](C(=O)N[C@@H](Cc1ccc(O)cc1)C(=O)NCC(=O)N[C@@H](CCC(=O)O)C(=O)N[C@@H](CC(C)C)C(=O)N[C@@H](CCC(N)=O)C(=O)N[C@@H](CCCNC(=N)N)C(=O)N[C@@H](CC(C)C)C(=O)N[C@@H](CCC(N)=O)C(=O)N[C@@H](CCC(=O)O)C(=O)N[C@@H](CCCCN)C(=O)N[C@@H](CCC(=O)O)C(=O)N[C@@H](CCCNC(=N)N)C(=O)N[C@@H](CC(N)=O)C(=O)N[C@@H](CCCCN)C(=O)NCC(=O)N[C@@H](CCC(N)=O)C(=O)O)[C@@H](C)O [[Leu^13]pMOT(1-22), reference compound]",,8.13,30.2,0.17,,,0.661
CC[C@H](C)[C@H](NC(=O)[C@@H]1CCCN1C(=O)[C@@H](NC(=O)[C@H](Cc1ccccc1)N(C)C)C(C)C)C(=O)N[C@@H](Cc1ccccc1)C(=O)N[C@H](C(=O)N[C@@H](Cc1ccc(O)cc1)C(=O)NCC(=O)N[C@@H](CCC(=O)O)C(=O)N[C@@H](CC(C)C)C(=O)N[C@@H](C)C(=O)N[C@H](CCCNC(=N)N)C(=O)N[C@@H](CC(C)C)C(=O)N[C@H](CCCCN)C(N)=O)[C@@H](C)O (NMe2Phe-VPIFTYGELA[dR]L[dK]-NH2),1.45,7.69,47,0.35,,,
CC[C@H](C)[C@H](NC(=O)[C@@H]1CCCN1C(=O)[C@@H](NC(=O)[C@H](Cc1ccccc1)[N+](C)(C)C)C(C)C)C(=O)N[C@@H](Cc1ccccc1)C(=O)N[C@H](C(=O)N[C@@H](Cc1ccc(O)cc1)C(=O)NCC(=O)N[C@@H](CCC(=O)O)C(=O)N[C@@H](CC(C)C)C(=O)N[C@@H](C)C(=O)N[C@H](CCCNC(=N)N)C(=O)N[C@@H](CC(C)C)C(=O)N[C@@H](CCCCN)C(N)=O)[C@@H](C)O (X1-VPIFTYGELA[dR]LK-NH2),1.29,7.64,125,0.12,,,
